Source: patent EP0748793A1, “KETOPANTHENOL WITH ACETYLATING PROPERTIES” (TOVARISCHESTVO S OGRANICHENNOI OTVETSTVENNOSTJU " PANT", priority 1994, dated 1995)
“Also recorded” adds a separate entry of the source.

How the values were obtained:
[1] = system: acetylation of aromatic amines (N-acetylation); assay: Acetylating properties of the organism: acetylation of sodium sulfacyl, arylamines determined in urine; type: in vivo, white rats; details: for % of excretion from the dose, In acetylated form / % of excretion from the dose, In free form / Acetylating properties of the organism: Na sulfacyl acetylating in the organism of rats; for Concentration in urine, In acetylated form / Concentration in urine, In free form: Na sulfacyl in rat urine; for Na sulfacyl excretion, Sulfacyl isolation M ± m, In acetylated form / Na sulfacyl excretion, Sulfacyl isolation M ± m, In free form / Na sulfacyl excretion, Sulfacyl isolation M ± m, Total / Na sulfacyl excretion, Excretion % from the dose: rats; for Na sulfacyl excretion, Sulfacyl isolation M ± m, In acetylated form / Na sulfacyl excretion, Sulfacyl isolation M ± m, In free form / Na sulfacyl excretion, Sulfacyl isolation M ± m, Total: agent i.p. for 4 days, then Na sulfacyl 20 mg/kg i.p., urine; for Na sulfacyl excretion, Excretion % from the dose: total sulfacyl in urine relative to the sulfacyl dose
Experimental: The level of the organism supply with a vitamin is determined by the study of the reaction of acetylation of exogenous aromatic amines. The total acetylating properties of the organism were assessed by the method of quantitative determination of the content of arylamines in the examined substrate (urine).
Sodium sulfacyl was chosen as the substance for acetylation.
The influence of 4-days of injections of ketopanthenol on the acetylating properties of white rats was examined during the experiments.
The experiments were carried out using mongrel pubescent male rats. 14 animals were included in each group. The examined agent was injected intraperitoneally in a dose of 29 mg/kg. On the 4th day 4 hours after the last injection of the examined agent the sodium sulfacyl solution in a dose of 20 mg/kg was injected intraperitoneally. All the rats were separated into exchangeable cages for urine gathering. The resulting data were compared with the control groups (group I - only received sodium sulfacyl in a dose of 20 mg/kg, and group II received calcium D-pantothenate).
The average weight of the animals in the group fluctuated within 154.7 ± 10.8 g, the absolute dose of sodium sulfacyl was 3.09 ± 0.14 mg.

non-linear white rats = assay: Subchronic toxicity and local irritating effect, 2 months daily dosing, mass growth; type: in vivo
Experimental: The study of subchronic toxicity and the local irritating effect of ketopanthenol.
In the experiment carried out for 2 months, non-linear white rats of both sexes with the average initial weight of 75 ± 3.3 g were used. The animals were divided into 7 groups. The first three groups received daily, during the whole experimental period, ketopanthenol in 0.2 ml of distilled water in doses of 13.2 mg/kg (which corresponds to the therapeutic dose of vitamin B3), 132.0 and 264 mg/kg (in doses 10 and 20 times larger than the therapeutic dose). […] The animals of the seventh group were used as control, receiving internally 0.2 ml of distilled water daily.
During the whole experiment the animals were weighed once a week and the observation on their development, state and behavior was carried out.

in vivo = details: mouse, po
Experimental: (§1) To determine acute toxicity of ketopanthenol, non-linear white mice of both sexes with the average mass of 19 ± 3 g were used. There were 72 mice in the experiment, the animals were divided into 12 groups, 6 animals in each group. The mice of the first 6 groups received ketopanthenol in 0.2 ml of distilled water once internally in doses: 20.0, 21.0, 22.0, 23.0, 24.0 and 25.0 g/kg.
(§2) The 12 group was the control one, the mice of this group received once internally only 0.2 ml of distilled water.
(§3) The mice were under observation for 14 days.
(§4) The LD50 calculations were carried out according to Kerber

Solubility in solvents = type: physicochemical
[2] = system: conjunctive bag of the eye; assay: Eye irritation, aqueous solution dripped into the conjunctive bag; type: in vivo; details: eye of 5 rabbits, three days
Excerpt: The aqueous solution of ketopanthenol was dripped into the conjunctive bag of the eye of 5 rabbits weighing 2.5 ± 0.3 kg for three days.

non-linear white mice = assay: in vivo; details: mouse
Experimental: as §1, §2, §3, §4

[3] = dose 10 times larger than the therapeutic dose (132.0 mg/kg), 2 months
[4] = dose 20 times larger than the therapeutic dose (264 mg/kg), 2 months
[5] = rats, 13.2 mg/kg daily, 2 months
[6] = rats, 132.0 mg/kg daily, 2 months
[7] = rats, 264.0 mg/kg daily, 2 months
[8] = therapeutic dose (13.2 mg/kg), 2 months

Structure (SMILES) | % of excretion from the dose, In acetylated form [1] [%] | % of excretion from the dose, In free form [1] [%] | Acetylating properties of the organism [1] | Concentration in urine, In acetylated form [1] [mg/mL] | Concentration in urine, In free form [1] [mg/mL] | Na sulfacyl excretion, Sulfacyl isolation M ± m, In acetylated form [1] | Na sulfacyl excretion, Sulfacyl isolation M ± m, In free form [1] | Na sulfacyl excretion, Sulfacyl isolation M ± m, Total [1] | Na sulfacyl excretion, Excretion % from the dose [1] [%] | growth of the mass of the rats, higher in comparison with the control animals (non-linear white rats; [3]) [%] | growth of the mass of the rats, higher in comparison with the control animals (non-linear white rats; [4]) [%] | Mass growth during the experiment (non-linear white rats; [5]) [g] | Mass growth during the experiment, % to the control (non-linear white rats; [5]) [%] | Mass, Final (non-linear white rats; [5]) | Mass growth during the experiment (non-linear white rats; [6]) [g] | Mass growth during the experiment, % to the control (non-linear white rats; [6]) [%] | Mass, Final (non-linear white rats; [6]) | Mass growth during the experiment (non-linear white rats; [7]) [g] | Mass growth during the experiment, % to the control (non-linear white rats; [7]) [%] | Mass, Final (non-linear white rats; [7]) | also measured
CC(C)(CO)[C@@H](O)C(=O)NCCC(=O)O [D (+) pantothenate Ca, calcium D-pantothenate, reference compound] | 22.3 ± 1.8 | 70.7 ± 6.0 | 24.0 | 0.172 | 0.54 | 0.67 ± 0.04 | 2.12 ± 0.09 | 2.79 ± 0.19 | 93.0 |  |  |  |  |  |  |  |  |  |  |  | 
CC(C)(CO)[C@@H](O)C(=O)NCCCO [D-panthenol, D-pantothenyl alcohol, reference compound] |  |  |  |  |  |  |  |  |  | 9.3 | 5.2 | 129.5 ± 8.5 | 108.0 | 202.0 ± 16.4 | 131.1 ± 8.5 | 109.3 | 205.1 ± 16.0 | 126.1 ± 9.3 | 105.2 | 197.3 ± 18.8 | growth of the mass of the rats, higher in comparison with the control animals (non-linear white rats; [8]): 8.0%; MTD at 336 h (in vivo): 21000 mg/kg
CC(C)(CO)C(=O)C(=O)NCCCO [ketopanthenol] | 32.0 ± 2.3 | 62.1 ± 2.9 | 34.0 | 0.36 | 0.71 | 0.99 ± 0.4 | 1.92 ± 0.09 | 2.91 ± 0.21 | 94.2 | 12.0 | 6.5 | 132.7 ± 10.7 | 103.72 | 210.7 ± 18.1 | 134.3 ± 8.4 | 112.0 | 209.5 ± 22.5 | 127.7 ± 11.0 | 106.5 | 200.1 ± 12.3 | changes in development, state and behavior of the animals (non-linear white rats; rats, 2 months, in comparison with the control rats): No changes; toxic influence on the animals' organism (non-linear white rats; rats, prolonged period (2 months)): no toxic influence; also recorded: no toxic effect; local irritating effect (non-linear white rats; rats, visual examination of the internal organs after slaughtering): no local irritating effect was observed; growth of the mass of the rats, higher in comparison with the control animals (non-linear white rats; [8]): 10.7%; solubility (Solubility in solvents; in ether): poor solubility; solubility (Solubility in solvents; in water, alcohols, acetone, chloroform): good solubility; irritating effect [2]: No irritating effect was observed; LD50 at 336 h (in vivo): 23500 mg/kg; MTD at 336 h (in vivo): 21000 mg/kg; dose from which mice lost mobility, had quickened breathing, inertia, narrowed eye slots (non-linear white mice): ≥ 22.0 g/kg; LD100 (non-linear white mice; 20160 min): 25.0 g/kg; excretion of the sulfacyl in its free form, lower ([1]; compared with the series I (control)): 20%; increase of the acetylating properties of the organism ([1]; in comparison with calcium D-pantothenate): 1.5 times; increase of the excretion of the acetylated product ([1]; in comparison with group II (calcium D-pantothenate)): 1.7 times; increase of the acetylating properties of the organism ([1]; in comparison with the control): 3.6 times; increase of the excretion of the acetylated product ([1]; in comparison with the control group): 4 times
